# Like-named read-outs stand apart in the source and are kept apart here.
# What was measured:
# [1] = Complexation (phase solubility) study of pantoprazole with βCD and HPβCD in phosphate buffer pH 7; format: physicochemical; details: in the presence of βCD (up to 1.8% p/v), phosphate buffer pH 7, maximum
# Procedure: Methods: Various solutions of the different cyclodextrins taken into consideration were prepared in phosphate buffer solution pH 7 at known concentrations and used to create saturated solutions of pantoprazole. After equilibration, these saturated solutions were filtered through MF™ membrane filters (pore size 0.45 μm), appropriately diluted with phosphate buffer solution and subjected to uv/vis spectrophotometric analysis. The cyclodextrin solutions prepared with phosphate buffer ranged from concentrations of 0% p/v up to 1.8% p/v for βCD, 20% p/v for HPβCD.
# [2] = Phase-solubility studies of PNTH with β-CD, HPβ-CD and SBβ-CD in phosphate buffer pH 7; format: physicochemical; details: for solubility: thermodynamic from solid; for increase of apparent solubility versus phosphate buffer alone: phosphate buffer pH 7
# Procedure: The Solubility of PNTH in Phosphate Buffer Solution at pH 7 was Determined Using a Previously Constructed Asorbance vs. Concentration Calibration Curve.
# A known amount of PNTH was suspended in cyclodextrin solutions of different concentrations ranging from; 0 to 1.8% (p/v) for β-CD, 0 to 20% (p/v) for H-Pβ-CD and 0 to 15% (p/v) for SB-β-CD. The resulting suspension was filtered using a PTFE 0.45μ filter, adequately diluted and then subjected to UV spectrophotometric analysis. The concentration of PNTH in the corresponding sample was then calculated referring to the relevant PNTH calibration curve.
# UV-VIS spectra were recorded on a Jasco V570 Spectrophoto meter.
smiles,measurement,setting,value
"COc1ccnc(C[S+]([O-])c2nc3ccc(OC(F)F)cc3[nH]2)c1OC (centres unmarked) [pantoprazole, 5-difluoromethoxy-2-[(3,4-dimethoxy-2-pyridinyl)methylsulfinyl]-1H-benzimidazole]",increase of solubility with respect to solubility in phosphate buffer,[1],four
same,solubility,"[2]; aqueous buffer, phosphate buffer solution pH 7, no cyclodextrin, read-out: solubility in phosphate buffer alone",0.56 mM
same,solubility,"[2]; aqueous with cosolvent or surfactant or cyclodextrin, solutions of HPβ-CD (0 to 20% p/v) in phosphate buffer pH 7, maximum reached, read-out: apparent solubility with HPβ-CD",17.8 mM
same,solubility,"[2]; aqueous with cosolvent or surfactant or cyclodextrin, solutions of SBβ-CD (0 to 15% p/v) in phosphate buffer pH 7, maximum reached, read-out: apparent solubility with SBβ-CD",9.3 mM
same,solubility,"[2]; aqueous with cosolvent or surfactant or cyclodextrin, solutions of β-CD (0 to 1.8% p/v) in phosphate buffer pH 7, maximum reached, read-out: apparent solubility with β-CD",2.25 mM
same,increase of apparent solubility versus phosphate buffer alone,[2]; solutions of HPβ-CD (0 to 20% p/v),36 times
same,increase of apparent solubility versus phosphate buffer alone,[2]; solutions of SBβ-CD (0 to 15% p/v),twenty
same,increase of apparent solubility versus phosphate buffer alone,[2]; solutions of β-CD (0 to 1.8% p/v),four

# — patent US20050171057A1, “Pantoprazole cyclodextrin inclusion complexes” (ALTANA PHARMA AG, priority 2002, published 2005)
